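Growth conditions: 96-well plates. Treatment: test compound, 48 hours, 5 concentrations. Analysis: linear interpolation between bracketing concentrations; unreached endpoints set to highest concentration. Abbreviation: GI50, concentration required for 50% inhibition of growth. TGI: concentration producing complete growth inhibition.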
Columns and labels:
Test in all cases: NCI anticancer screen, dose series, 48 h
[1] = tested on: CCRF-CEM leukemia
[2] = tested on: OVCAR-8 ovarian
[3] = tested on: IGROV1 ovarian
[4] = tested on: PC-3 prostate
[5] = tested on: OVCAR-4 ovarian
[6] = tested on: SF-268 CNS
[7] = tested on: TK-10 renal
[8] = tested on: MCF7 breast
[9] = tested on: OVCAR-3 ovarian
[10] = tested on: SF-539 CNS

| Compound | GI50 [1] [µM] | TGI [1] [µM] | GI50 [2] [µM] | TGI [2] [µM] | GI50 [3] [µM] | TGI [3] [µM] | GI50 [4] [µM] | TGI [4] [µM] | GI50 [5] [µM] | TGI [5] [µM] | GI50 [6] [µM] | TGI [6] [µM] | GI50 [7] [µM] | TGI [7] [µM] | GI50 [8] [µM] | TGI [8] [µM] | GI50 [9] [µM] | TGI [9] [µM] | GI50 [10] [µM] | TGI [10] [µM] |
| --- | --- | --- | --- | --- | --- | --- | --- | --- | --- | --- | --- | --- | --- | --- | --- | --- | --- | --- | --- | --- |
| CN1CCN(CCCn2c(=O)c3sc4ncccc4c3n3nnc(-c4ccccc4)c23)CC1 | 1.55 | 5.29 | 7.83 | 15.3 | 5.93 | 13.8 | 6.27 | 13.4 | 7.27 | 14 | 6.45 | 13.2 | 6.92 | 13.6 | 7.69 | 15 | 2.3 | 7.58 | 5.72 | 13.4 |
| CC(C)(C)OC(=O)N[C@H]1CC2(C=C(Cl)C(=O)C(Cl)=C2)OC1=O |  | 5.4 |  | 34.5 |  | 36 |  | 32.1 |  | 32.5 |  | 32.3 |  | 33.8 |  | 23.3 |  | 28.1 |  | 45.1 |
| N#CC(C#N)=CNC(N)=S |  | > 100 |  | > 100 |  | > 100 |  | > 100 |  | > 100 |  | > 100 |  |  |  | > 100 |  | > 100 |  | > 100 |
| N=Nc1c(OC(=O)Nc2cccc(Cl)c2)[nH]c2ccccc12 |  | 21.9 |  | 20 |  | 21.4 |  | 14.6 |  | 19.6 |  | 27.9 |  | 24.6 |  | 23.5 |  | 6.6 |  | 32.6 |
| OCc1ccc(-c2ccc(-c3ccc(CO)s3)o2)s1 |  | 72.2 |  | 61.4 |  | 0.676 |  | > 100 |  | 2.76 |  | > 97.1 |  | 0.171 |  | 2.59 |  | 0.791 |  | > 85.8 |
| C[C@@H]1CCC2[C@@H](C)[C@@H](OCC(CO[C@H]3OC4O[C@@]5(C)CC[C@H]6[C@H](C)CCC([C@H]3C)[C@@]46OO5)OC(=O)CCC(=O)O)OC3O[C@@]4(C)CC[C@@H]1[C@]32OO4 (stereo partly drawn) | < 0.0279 | > 47.3 | 0.511 | 27.2 | 12.6 | > 69 | < 0.01 | 14.7 | 0.0583 | 26.3 |  | 20.1 | < 0.046 | 29.5 | < 0.01 | 16.7 | 0.02 | 15.8 | 2.26 | 28.8 |
| C=C1NC(=O)C(C(C)CC)NC(=O)C2CSCC(NC(=O)CCC(=O)O)C(=O)NC(Cc3ccccc3)C(=O)NC(C)C(=O)NC(CC(C)CC)C(=O)NC(C(=O)NC(Cc3ccccc3)C(=O)N3CCCC3C(=O)N2)C(C)OC(=O)C(CO)NC(=O)C(C(O)COC)N(C)C(=O)C(C(C)C)NC(=O)C(CC(C)CC)NC1=O (stereo not drawn) | 0.0137 | > 6 | 0.0678 | > 6 | 0.112 | > 6 | 0.0265 | > 6 | 0.339 | > 6 | 0.0342 | > 6 | 0.95 | > 6 | 0.0124 | > 6 | 0.0118 |  | 0.00868 | 0.279 |
| Fc1cc2[nH]ncc2c2c3c(c(-c4cn[nH]c4)nc12)CCCC3 | 1.13 | > 100 | 1.48 | > 30.2 | 0.521 | 9.56 | 1.77 | 33.7 | 1.69 | 8.14 | 1.31 | 4.01 | 1.21 | > 27.8 | 1.45 | 12.8 | 1.53 | 6.91 | 1.14 | 2.82 |
| CCOC(=O)c1cc2nc3ccccc3c(=O)n2c2ccccc12 |  | > 10 |  | > 10 |  | > 10 |  | > 10 |  | > 10 |  | > 10 |  | > 10 |  | > 10 |  | > 10 |  | > 10 |
| O=C1c2cc3c(cc2-c2c1c1ccc(F)cc1c(=O)n2CCCNCCO)OCO3 | 0.0301 | 1.27 | 0.0538 | 0.356 |  |  | 0.144 | 1.47 | 0.194 | 1.33 | 0.0537 | 1.16 | 0.148 | 0.487 |  | 0.166 | 0.0751 | 0.826 | 0.0407 | 0.324 |
| Cc1cc2c(cc1Cl)SC(N(N(C)C)S(=O)(=O)c1ccc(Cl)cc1)=NS2(=O)=O | 3.29 | > 100 | 36.6 | > 100 | 31.8 | > 100 | 22.4 | > 100 | 23.4 | 96.4 | 32.4 | > 100 | 43.9 | > 100 | 12.6 | 48.3 | 24 | 61.6 | 18.2 | 45.8 |
| C=C(Br)C(C)(Br)CCC(Br)C(C)(C)Cl (stereo not drawn) |  | 13.4 |  | 35.7 |  | 18.3 |  | 36.3 |  | 34.4 |  | 36.1 |  | 32.7 |  | 31.5 |  | 33.5 |  | 31.6 |
| O=C(CCc1nnc2sc(-c3ccc(Cl)cc3Cl)nn12)c1nc2ncccc2[nH]1 | 2.68 | 9 | 3.44 | > 100 | 1.82 | 3.8 | 1.63 | 3.63 | 1.92 | 4.26 | 3.99 | 21.4 | 2.53 | 5.16 | 2.59 | > 100 | 1.52 | 3.1 | 1.96 | 3.98 |
| CCN(CC)/C(SCc1ccccc1)=C(\C(Cl)=C(Cl)Cl)[N+](=O)[O-] |  | 52.2 |  | 31.7 |  | 33.8 |  | 47.1 |  | 44.6 |  | 46.6 |  | 33.3 |  | 32.1 |  | 24.3 |  | 39.4 |
| CC1(C)C2CCC(=O)C1CC2 (stereo not drawn) |  | > 100 |  | > 100 |  | > 100 |  | > 100 |  |  |  | > 100 |  | > 100 |  | > 100 |  | > 100 |  | > 100 |
| Cc1cc(O)c(/C=N/C(=S)NCc2ccccc2)c(=O)o1 |  | > 100 |  | > 100 |  | > 100 |  | > 100 |  | > 100 |  | > 100 |  | > 100 |  | > 100 |  | > 100 |  | > 100 |
